{
  "source": "patent US9724312B2",
  "about": "“Agent for the prevention, improvement or treatment of retinal disease” (ROHTO PHARMACEUTICAL CO., LTD., priority 2012, dated 2017)",
  "key": {"[1]": {"system": "rat models with glaucoma induced by NMDA", "experiment": "Protective effect for retinal ganglion cells against nerve damage by NMDA (thickness of inner plexiform layer)", "type": "in vivo", "settings": "once a day", "excerpt": "In recent years the glutamate analogue NMDA (N-methyl-D-aspartate) has been widely reported to be one of causative agents of neurodegenerative diseases including Alzheimer's disease. In the ophthalmic field, NMDA is considered to be involved in optic nerve damage in glaucoma (Brain Research Bulletin, 81 (2010) 349-358). Accordingly, in this experiment rat models with glaucoma induced by NMDA were used to evaluate the neuroprotective effect of GGA.\nTo Sprague-Dawley (SD) rats, the all-trans form, the 5Z-mono-cis form and teprenone were separately pre-administered by oral administration (Test Example 1), intravitreal administration (Test Example 2) or ocular instillation administration (Test Example 3) and 5 μL of NMDA was administered into the vitreous body to induce nerve damage. For Test Example 2, a marketed therapeutic eye drop for glaucoma, AIPHAGAN (trade name), was intravitreally administered as a positive control once a day for five days. For each of Test Examples, a base not containing GGA or AIPHAGAN was administered as a control in the same manner as described above.\nThe dosage and regimen of Test Examples 1 to 3 are shown in Table 1 and the constitution of the base used in each tests are shown in Table 2.\nThree days after administration of NMDA, the eyeballs were harvested, fixed with half Karnovsky's fixative for 24 hours, embedded in paraffin, thin sectioned and stained with hematoxylin-eosin (HE) to prepare histopathological sections. The histological sections were observed under an optical microscope and the thickness (μm) of the inner plexiform layer (IPL) of the retina was measured. From the thickness of the inner plexiform layer (IPL) of the retina, the neuroprotective effects of the test preparations were evaluated."}, "[2]": {"system": "PC12", "experiment": "Protective effect against ischemic cell death induced by hypoxia and low glucose (Cell Titer-Glo cell viability)", "type": "cell-based, rat", "settings": "30 μM, 2 h pre-incubation, then low glucose/zero percent O2 8 h, FIG. 1, n=10, Tukey-Kramer", "excerpt": "The progress of visual impairment in glaucoma is associated with retinal ganglion cell (RGC) death due to blood flow failure occurring near the optic nerve (Folia Pharmacol. Jpn. 128, 255-258 (2006)). With the use of PC12, which is a typical neural cell line established from rat adrenal […] pheochromocytoma and used also as a model cell for the functional evaluation of RGC (J Neurosci Res. 2000 May 15; 60(4): 495-503), the cytoprotective effect of GGA against ischemic cell death induced by hypoxia and low glucose was evaluated.\nTest samples were prepared as follows. The test substances were four types of GGAs that contain the all-trans form and the 5Z-mono-cis form at a weight ratio of 10:0, 8:2, 6:4, and 0:10, respectively. […]\nAfter 8 hours of incubation, 100 μL of an equivalent mixture of a cell viability detection reagent Cell Titer-Glo (Promega) and PBS was added to each well and the luminescence produced by the reaction with ATP in living cells was measured with a luminometer (GloMax; Promega). The cell viability was calculated from the measured luminescence by the following formula and the cytoprotective effect of GGA against oxidative stress by hydrogen peroxide was examined. Cell viability(%)=100×[(luminescence of base- or GGA-treated group)/(luminescence of non-treated group)]"}, "[3]": {"system": "glaucoma rat model", "settings": "intraperitoneal administration; cited from earlier work"}, "[4]": {"system": "mouse with visual cell damage induced by light irradiation", "settings": "oral administration; cited from earlier work"}, "[5]": {"system": "mouse with retinal injury induced by ischemia", "settings": "oral administration; cited from earlier work"}, "[6]": {"system": "retinal detachment-induced animal", "settings": "intraperitoneal administration; cited from earlier work"}, "[7]": {"system": "multiple sclerosis mouse model", "settings": "oral administration; cited from earlier work"}, "[8]": {"settings": "Test Example 1: oral 800 mg/kg, 2 days, NMDA 4 mM, FIG. 6, Dunnett"}},
  "data": [
    {"molecule": "CC(=O)CC/C=C(/C)CC/C=C(\\C)CC/C=C(\\C)CCC=C(C)C", "note": "[5Z-mono-cis form, (5Z,9E,13E)-6,10,14,18-tetramethyl-5,9,13,17-nonadecatetrae n-2-one]", "values": [
      {"measurement": "neuroprotective effect against nerve damage by NMDA compared with base (IPL thickness)", "setting": "[1]; [8]", "value": "significant neuroprotective effects"},
      {"measurement": "neuroprotective effect against nerve damage by NMDA compared with base (IPL thickness)", "setting": "[1]; Test Example 2: intravitreal 0.05% w/v, 5 days, NMDA 40 mM, FIG. 7, Tukey-Kramer", "value": "significant neuroprotective effects"},
      {"measurement": "cytoprotective effect compared with GGA 6:4", "setting": "[2]", "value": "significantly higher cytoprotective effects"}
    ]},
    {"molecule": "teprenone", "values": [
      {"measurement": "expression of heat shock protein 72", "setting": "[3]", "value": "induced the expression of heat shock protein 72"},
      {"measurement": "retinal ganglion cell death and optic nerve damage", "setting": "[3]", "value": "reduced retinal ganglion cell death and thereby ameliorated optic nerve damage"},
      {"measurement": "induction of thioredoxin and heat shock protein 72 in the retinal pigment epithelium", "setting": "[4]", "value": "induced thioredoxin and heat shock protein 72 in the retinal pigment epithelium"},
      {"measurement": "number of surviving retinal neurons", "setting": "[5]", "value": "significantly increased the number of surviving retinal neurons"},
      {"measurement": "apoptosis of visual cells", "setting": "[6]", "value": "reduced the apoptosis of visual cells significantly"},
      {"measurement": "expression of heat shock protein 70", "setting": "[6]", "value": "induced the expression of heat shock protein 70"},
      {"measurement": "neuroprotective effect against nerve damage by NMDA compared with base (IPL thickness)", "setting": "[1]; [8]", "value": "did not show a significant neuroprotective effect"},
      {"measurement": "cell loss in the ganglion", "setting": "[7]", "value": "prevented cell loss in the ganglion"},
      {"measurement": "number of degenerating axons in the optic nerve", "setting": "[7]", "value": "reduced the number of degenerating axons in the optic nerve"},
      {"measurement": "visual function", "setting": "[7]", "value": "improved the visual function"}
    ]}
  ]
}
